Assay results: patent publication US20140275234A1, “COMPOSITIONS AND METHODS OF USING CRYSTALLINE FORMS OF WORTMANNIN ANALOGS” (ONCOTHYREON INC., priority 2010, published 2014)

Tests used:
[1] = Initial solvent screen, visual dissolution on adding solvent in 50 μL portions; assay type: physicochemical; conditions: for Soluble: RT
Method: This initial solvent screen of PX-866 in 18 solvents was executed to select appropriate solvents for slurry experiments. Approximately 1-2 mg of the material was placed in 2 dram glass vials and the chosen solvents were added in 50 μL portions to determine the minimum amount of solvent needed for dissolution. The vials were shaken at ambient temperature and visually inspected between each addition to determine if complete dissolution had taken place.
To estimate the ratio of primary solvent to anti-solvent necessary for use in the slurry experiments, heptane or water was then added to the dissolved PX-866 in […], portions until a turbid solution was formed or solids precipitated out. […] The exceptions occurred when MeCN and AcOH were used as the primary solvent as the product oiled out upon anti-solvent addition.

[2] = Formulation and handling studies of amorphous and crystalline forms; assay type: physicochemical
From the text: In some embodiments, crystalline forms of Compound 1 and/or analogs thereof show less variability in vitro dissolution profiles as compared to the amorphous form. In some instances, crystalline forms of Compound 1 and/or analogs thereof have better flowability as compared to the amorphous form.

C=CCN(/C=C1/C(=O)O[C@H](COC)[C@@]2(C)C1=C(O)C(=O)C1=C2[C@H](OC(C)=O)C[C@]2(C)C(=O)CC[C@@H]12)CC=C [PX-866, (4S,4aR,5R,6aS,9aR, Z)-1-((diallylamino)methylene)-11-hydroxy-4-(methoxymethyl)-4-a,6a-dimethyl-2,7,10-trioxo-1,2,4,4a,5,6,6a,7,8,9,9a,10-dodecahydroindeno[4,5-h]isochromen-5-yl acetate]
Yes: Soluble ([1]; AcOH, vial conc. 48.0 mg/mL) | Soluble ([1]; Acetone, vial conc. 38.0 mg/mL) | Soluble ([1]; Acetone, vial conc. 102.0 mg/mL (Table 2A)) | Soluble ([1]; DCM, vial conc. 48.0 mg/mL) | Soluble ([1]; DMF, vial conc. 56.0 mg/mL) | Soluble ([1]; Dioxane, vial conc. 38.0 mg/mL) | Soluble ([1]; EtOAc, vial conc. 38.0 mg/mL) | Soluble ([1]; EtOH, vial conc. 56.0 mg/mL) | Soluble ([1]; EtOH, vial conc. 164.0 mg/mL (Table 2A)) | Soluble ([1]; IPA, vial conc. 28.0 mg/mL) | Soluble ([1]; IPA, vial conc. 106.0 mg/mL (Table 2A)) | Soluble ([1]; IPAc, vial conc. 32.0 mg/mL) | Soluble ([1]; MECN, vial conc. 100.0 mg/mL (Table 2A)) | Soluble ([1]; MEK, vial conc. 56.0 mg/mL) | Soluble ([1]; MTBE, vial conc. 13.0 mg/mL) | Soluble ([1]; MeCN, vial conc. 16.0 mg/mL) | Soluble ([1]; MeOH, vial conc. 52.0 mg/mL) | Soluble ([1]; MeOH, vial conc. 150.0 mg/mL (Table 2A)) | Soluble ([1]; THF, vial conc. 52.0 mg/mL) | Soluble ([1]; Toluene, vial conc. 56.0 mg/mL)
limited or no solubility: Solubility ([1]; c-hexane, heptane, and water)
No: Soluble ([1]; Heptane, vial conc. 0.4 mg/mL) | Soluble ([1]; c-Hexane, vial conc. 0.3 mg/mL)
good solubility: solubility at ambient temperature ([1]; MeCN, dioxane, acetone, MTBE, EtOH, EtOAc, IPAc, IPA, THF, MEK, DMF, AcOH, MeOH, toluene, DCM)
Partially: Soluble ([1]; Water, vial conc. 0.3 mg/mL)
poor stability: stability in solution [2]
